Tests used:
[1] = target: GDP-bound HRAS wild-type protein (Homo sapiens, UniProt P01112); assay: Binding to HRAS by surface plasmon resonance (SPR), Single Cycle Kinetics; settings: for HRAS/KRAS (ratio of KD value for HRAS to KD value for KRAS): SPR, GDP-bound HRAS wild-type protein vs GDP-bound KRAS wild-type protein; for HRAS/KRAS (ratio of KD value with respect to GDP-bound HRAS wild-type protein to KD value with respect to KRAS): SPR KD ratio HRAS/KRAS, class symbols
[2] = target: GDP-bound NRAS wild-type protein (Homo sapiens, UniProt P01111); assay: Binding to NRAS by surface plasmon resonance (SPR), Single Cycle Kinetics; settings: for NRAS/KRAS (ratio of KD value for NRAS to KD value for KRAS): SPR, GDP-bound NRAS wild-type protein vs GDP-bound KRAS wild-type protein; for NRAS/KRAS (ratio of KD value with respect to GDP-bound NRAS wild-type protein to KD value with respect to KRAS): SPR KD ratio NRAS/KRAS, class symbols
Chain of GDP-bound NRAS wild-type protein (P01111 whole entry): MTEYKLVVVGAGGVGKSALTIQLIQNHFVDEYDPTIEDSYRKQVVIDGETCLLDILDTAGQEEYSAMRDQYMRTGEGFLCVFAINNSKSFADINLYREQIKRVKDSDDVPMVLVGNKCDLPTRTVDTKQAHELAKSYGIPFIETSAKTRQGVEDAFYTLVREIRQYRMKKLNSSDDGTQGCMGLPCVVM

Chain of GDP-bound HRAS wild-type protein (P01112 whole entry): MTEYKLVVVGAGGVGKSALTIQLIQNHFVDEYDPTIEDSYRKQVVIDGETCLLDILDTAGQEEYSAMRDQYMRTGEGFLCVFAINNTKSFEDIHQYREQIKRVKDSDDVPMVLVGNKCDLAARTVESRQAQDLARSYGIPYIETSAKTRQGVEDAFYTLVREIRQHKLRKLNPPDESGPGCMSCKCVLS

## CCC[C@H]1C(=O)N[C@@H](C2CCC2)C(=O)N(C)CC(=O)N(C)[C@H]2C/C=C\CCN(C2=O)[C@@H](Cc2ccc(C)cc2)C(=O)N(C)CC(=O)N[C@@H](CCc2ccc(C(F)(F)F)c(F)c2)C(=O)N2C[C@H](OCC)C[C@H]2C(=O)NC2(CC(C)(C)C2)C(=O)N(C)[C@@H](C2CCC2)C(=O)N(C)[C@H](C(=O)N(C)C)CC(=O)N1C [PP2242]
[1]
  HRAS/KRAS (ratio of KD value for HRAS to KD value for KRAS): A (a compound having 10 or more and less than 20 is denoted as A)
[2]
  NRAS/KRAS (ratio of KD value for NRAS to KD value for KRAS): A (a compound having 10 or more and less than 20 is denoted as A)

## CCO[C@@H]1C[C@H]2C(=O)NC3(CCC3)C(=O)N(C)[C@@H](C3CCCC3)C(=O)N(C)[C@H](C(=O)N(C)C)CC(=O)N(C)[C@@H](CC3CCCC3)C(=O)N[C@@H]([C@@H](C)CC)C(=O)N(C)CC(=O)N(C)[C@H]3C/C=C\CCN(C3=O)[C@@H](Cc3ccc(F)cc3C)C(=O)N(C)CC(=O)N[C@@H](CCc3cc(F)c(C(F)(F)F)c(F)c3)C(=O)N2C1 [PP1530]
[1]; KD ratio class
  HRAS/KRAS (ratio of KD value for HRAS to KD value for KRAS): B (a compound having 3 or more and less than 10 is denoted as B)
[2]; KD ratio class
  NRAS/KRAS (ratio of KD value for NRAS to KD value for KRAS): A (a compound having 10 or more and less than 20 is denoted as A)

## CCO[C@@H]1C[C@H]2C(=O)NC3(CC(C)(C)C3)C(=O)N(C)[C@@H](C3CCCC3)C(=O)N(C)[C@H](C(=O)N(C)C)CC(=O)N(C)[C@@H](CC(C)C)C(=O)N[C@@H]([C@@H](C)CC)C(=O)N(C)CC(=O)N(C)[C@H]3C/C=C\CCN(C3=O)[C@@H](Cc3ccc(C(C)C)cc3)C(=O)N(C)CC(=O)N[C@@H](CCc3ccc(C(F)(F)F)c(OC)c3)C(=O)N2C1 [PP2692]
[1]
  HRAS/KRAS (ratio of KD value with respect to GDP-bound HRAS wild-type protein to KD value with respect to KRAS): A (a compound having 10 or more and less than 20 is denoted as A)
[2]
  NRAS/KRAS (ratio of KD value with respect to GDP-bound NRAS wild-type protein to KD value with respect to KRAS): A (a compound having 10 or more and less than 20 is denoted as A)

## CCO[C@@H]1C[C@H]2C(=O)NC3(CCCC3)C(=O)N(C)[C@@H](C3CCCC3)C(=O)N(C)[C@H](C(=O)N3CCOCC3)CC(=O)N(C)[C@@H](CC(C)C)C(=O)N[C@@H]([C@@H](C)CC)C(=O)N(C)CC(=O)N(C)[C@H]3CCCCCN(C3=O)[C@@H](Cc3ccc(F)cc3)C(=O)N(C)CC(=O)N[C@@H](CCc3ccc(C(F)(F)F)c(Cl)c3)C(=O)N2C1 [PP0965]
[1]
  HRAS/KRAS (ratio of KD value for HRAS to KD value for KRAS): B (a compound having 3 or more and less than 10 is denoted as B)
[2]
  NRAS/KRAS (ratio of KD value for NRAS to KD value for KRAS): B (a compound having 3 or more and less than 10 is denoted as B)

## CCC[C@H]1C(=O)N[C@@H](C2CCOCC2)C(=O)N(C)CC(=O)N(C)[C@H]2C/C=C\CCN(C2=O)[C@@H](Cc2ccc(C)cc2)C(=O)N(C)CC(=O)N[C@@H](CCc2ccc(C(F)(F)F)c(Cl)c2)C(=O)N2C[C@H](OCC)C[C@H]2C(=O)NC2(CC(C)(C)C2)C(=O)N(C)[C@@H](CC(C)(C)C)C(=O)N(C)[C@H](C(=O)N(C)C)CC(=O)N1C [PP3026]
[1]
  HRAS/KRAS (ratio of KD value for HRAS to KD value for KRAS): A (a compound having 10 or more and less than 20 is denoted as A)
[2]
  NRAS/KRAS (ratio of KD value for NRAS to KD value for KRAS): A (a compound having 10 or more and less than 20 is denoted as A)

## CC[C@H](C)[C@@H]1NC(=O)[C@H](CC(C)C)N(C)C(=O)C[C@@H](C(=O)N(C)C)N(C)C(=O)[C@H](C2CCCC2)N(C)C(=O)C2(CCCC2)NC(=O)[C@@H]2CCCN2C(=O)[C@H](CCc2ccc(C(F)(F)F)c(Cl)c2)NC(=O)CN(C)C(=O)[C@H](Cc2ccc(F)cc2)N2CCCCC[C@@H](C2=O)N(C)C(=O)CN(C)C1=O [PP0971]
[1]
  HRAS/KRAS (ratio of KD value for HRAS to KD value for KRAS): B (a compound having 3 or more and less than 10 is denoted as B)
[2]
  NRAS/KRAS (ratio of KD value for NRAS to KD value for KRAS): B (a compound having 3 or more and less than 10 is denoted as B)

## CCCOC[C@H]1C(=O)N[C@@H]([C@@H](C)CC)C(=O)N(C)CC(=O)N(C)[C@H]2C/C=C\CCN(C2=O)[C@@H](Cc2ccc(C)cc2)C(=O)N(C)CC(=O)N[C@@H](CCc2cc(F)c(C(F)(F)F)c(F)c2)C(=O)N2C[C@H](CC)C[C@H]2C(=O)NC2(CCCC2)C(=O)N(C)[C@@H](C2CCCC2)C(=O)N(C)[C@H](C(=O)N(C)C)CC(=O)N1C [PP2218]
[1]
  HRAS/KRAS (ratio of KD value for HRAS to KD value for KRAS): A (a compound having 10 or more and less than 20 is denoted as A)
[2]
  NRAS/KRAS (ratio of KD value for NRAS to KD value for KRAS): A (a compound having 10 or more and less than 20 is denoted as A)

## CCO[C@@H]1CCN2C(=O)[C@H](CCc3cc(F)c(C(F)(F)F)c(F)c3)NC(=O)CN(C)C(=O)[C@H](Cc3ccc(C(F)(F)F)cc3)N3CCCCC[C@@H](C3=O)N(C)C(=O)CN(C)C(=O)[C@H]([C@@H](C)CC)NC(=O)[C@H](CC(C)C)N(C)C(=O)C[C@@H](C(=O)N3CCOCC3)N(C)C(=O)[C@H](C3CCCC3)N(C)C(=O)C3(CCC3)NC(=O)[C@H]12 [PP1082]
[1]
  HRAS/KRAS (ratio of KD value for HRAS to KD value for KRAS): B (a compound having 3 or more and less than 10 is denoted as B)
[2]
  NRAS/KRAS (ratio of KD value for NRAS to KD value for KRAS): A (a compound having 10 or more and less than 20 is denoted as A)

## CCC[C@H]1C(=O)N[C@@H]([C@@H](C)CC)C(=O)N(C2CC2)CC(=O)N(C)[C@H]2C/C=C\CCN(C2=O)[C@@H](Cc2ccc(C)cc2)C(=O)N(C)CC(=O)N[C@@H](CCc2cc(C)c(C(F)F)c(F)c2)C(=O)N2C[C@H](OCC)C[C@H]2C(=O)NC2(CC(C)(C)C2)C(=O)N(C)[C@@H](C2CCCC2)C(=O)N(C)[C@H](C(=O)N(C)C)CC(=O)N1C [PP2874]
[1]
  HRAS/KRAS (ratio of KD value with respect to GDP-bound HRAS wild-type protein to KD value with respect to KRAS): A (a compound having 10 or more and less than 20 is denoted as A)
[2]
  NRAS/KRAS (ratio of KD value with respect to GDP-bound NRAS wild-type protein to KD value with respect to KRAS): A (a compound having 10 or more and less than 20 is denoted as A)

## CCOC[C@H]1C(=O)N[C@@H]([C@@H](C)CC)C(=O)N(C)CC(=O)N(C)[C@H]2C/C=C\CCN(C2=O)[C@@H](Cc2ccc(C)c(F)c2)C(=O)N(C)CC(=O)N[C@@H](CCc2ccc(C(F)(F)F)c(OC)c2)C(=O)N2C[C@@H](C)C[C@H]2C(=O)NC2(CC(C)(C)C2)C(=O)N(C)[C@@H](C2CCCC2)C(=O)N(C)[C@H](C(=O)N(C)CC)CC(=O)N1C [PP2698]
[1]
  HRAS/KRAS (ratio of KD value with respect to GDP-bound HRAS wild-type protein to KD value with respect to KRAS): A (a compound having 10 or more and less than 20 is denoted as A)
[2]
  NRAS/KRAS (ratio of KD value with respect to GDP-bound NRAS wild-type protein to KD value with respect to KRAS): A (a compound having 10 or more and less than 20 is denoted as A)

## CCC[C@H]1C(=O)N[C@@H]([C@@H](C)CC)C(=O)N(C)CC(=O)N(C)[C@H]2C/C=C\CCN(C2=O)[C@@H](Cc2ccc(C(F)(F)F)cc2)C(=O)N(C)CC(=O)N[C@@H](CCc2ccc(C3CC3)c(OC)c2)C(=O)N2C[C@H](OCC)C[C@H]2C(=O)NC2(CC(C)(C)C2)C(=O)N(C)[C@@H](C2CCCC2)C(=O)N(C)[C@H](C(=O)N(C)C)CC(=O)N1C [PP2853]
[1]
  HRAS/KRAS (ratio of KD value with respect to GDP-bound HRAS wild-type protein to KD value with respect to KRAS): A (a compound having 10 or more and less than 20 is denoted as A)
[2]
  NRAS/KRAS (ratio of KD value with respect to GDP-bound NRAS wild-type protein to KD value with respect to KRAS): A (a compound having 10 or more and less than 20 is denoted as A)

## CCC[C@H]1C(=O)N[C@@H]([C@@H](C)CC)C(=O)N(C)CC(=O)N(C)[C@H]2C/C=C\CCN(C2=O)[C@@H](Cc2ccc(C)cc2)C(=O)N(C)CC(=O)N[C@@H](CCc2ccc(Cl)c(Cl)c2)C(=O)N2C[C@H](OCC)C[C@H]2C(=O)NC2(CC(C)(C)C2)C(=O)N(C)[C@@H](CC2CC2)C(=O)N(C)[C@H](C(=O)N(C)C)CC(=O)N1C [PP2799]
[1]
  HRAS/KRAS (ratio of KD value with respect to GDP-bound HRAS wild-type protein to KD value with respect to KRAS): A (a compound having 10 or more and less than 20 is denoted as A)
[2]
  NRAS/KRAS (ratio of KD value with respect to GDP-bound NRAS wild-type protein to KD value with respect to KRAS): A (a compound having 10 or more and less than 20 is denoted as A)
